Laboratory results taken from ChEMBL document CHEMBL1147554, “Novel pyrrole-containing progesterone receptor modulators” (Bioorg Med Chem Lett, 2004).
The source made the active and inactive calls. The rule behind the calls is not given here.

Columns and labels:
Progesterone receptor [1] = molecular target: T1, Progesterone receptor (Homo sapiens, UniProt P06401); assay: Ability to block progesterone induced alkaline phosphatase activity in T47D human breast cancer cell line; type: functional, cell-based
T1 sequence (P06401 whole entry): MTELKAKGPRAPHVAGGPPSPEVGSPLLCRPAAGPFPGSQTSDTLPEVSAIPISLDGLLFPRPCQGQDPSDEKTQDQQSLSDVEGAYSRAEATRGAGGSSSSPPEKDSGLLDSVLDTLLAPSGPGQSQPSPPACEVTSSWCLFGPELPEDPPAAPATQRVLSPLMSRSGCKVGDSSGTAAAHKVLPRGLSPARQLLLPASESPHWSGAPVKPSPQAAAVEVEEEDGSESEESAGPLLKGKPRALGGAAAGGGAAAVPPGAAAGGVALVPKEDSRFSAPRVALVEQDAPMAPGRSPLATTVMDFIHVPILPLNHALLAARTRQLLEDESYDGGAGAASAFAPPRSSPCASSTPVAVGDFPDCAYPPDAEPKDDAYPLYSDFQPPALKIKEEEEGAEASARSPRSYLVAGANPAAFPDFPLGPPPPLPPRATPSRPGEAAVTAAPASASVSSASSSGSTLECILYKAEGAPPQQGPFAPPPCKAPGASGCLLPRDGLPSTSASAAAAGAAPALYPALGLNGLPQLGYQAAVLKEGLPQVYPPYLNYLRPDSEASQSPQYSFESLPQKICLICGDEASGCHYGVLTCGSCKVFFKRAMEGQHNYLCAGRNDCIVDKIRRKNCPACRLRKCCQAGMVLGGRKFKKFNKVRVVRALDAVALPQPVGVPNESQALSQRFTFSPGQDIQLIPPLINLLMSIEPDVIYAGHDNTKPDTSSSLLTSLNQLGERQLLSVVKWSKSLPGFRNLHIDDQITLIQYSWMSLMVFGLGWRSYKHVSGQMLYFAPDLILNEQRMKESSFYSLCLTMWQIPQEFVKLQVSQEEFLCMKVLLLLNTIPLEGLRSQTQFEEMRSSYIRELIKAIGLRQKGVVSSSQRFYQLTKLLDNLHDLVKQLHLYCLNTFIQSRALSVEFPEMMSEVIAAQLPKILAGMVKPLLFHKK

[2] = Displacement of [3H]progesterone at progesterone receptor of T47D cells; type: cell-based, Homo sapiens
Progesterone receptor [3] = molecular target: T1, Progesterone receptor; assay: Agonistic activity measures the ability to induce alkaline phosphatase in T47D human breast cancer cell line; type: functional, cell-based
[4] = molecular target: T2, Progesterone receptor (Homo sapiens) (UniProt P06401); assay: Efficacy in vitro relative to P4 in progesterone receptor induced alkaline phosphatase T47D cell assay; type: functional, cell-based
T2 sequence (whole entry): T1 sequence (P06401 whole entry)

Progesterone receptor [5] = molecular target: T1, Progesterone receptor; assay: Agonistic activity as progesterone receptor induced alkaline phosphatase activity in T47D human breast cancer cells; type: functional, cell-based
[6] = molecular target: T3, Progesterone receptor (Rattus norvegicus) (UniProt Q63449); assay: Percentage inhibition of progesterone-induced stimulation when administered orally at 10 mg/kg in rat decidualization assay; type: functional, organism-based; design: dose 10 mg/kg
T3 sequence (whole entry): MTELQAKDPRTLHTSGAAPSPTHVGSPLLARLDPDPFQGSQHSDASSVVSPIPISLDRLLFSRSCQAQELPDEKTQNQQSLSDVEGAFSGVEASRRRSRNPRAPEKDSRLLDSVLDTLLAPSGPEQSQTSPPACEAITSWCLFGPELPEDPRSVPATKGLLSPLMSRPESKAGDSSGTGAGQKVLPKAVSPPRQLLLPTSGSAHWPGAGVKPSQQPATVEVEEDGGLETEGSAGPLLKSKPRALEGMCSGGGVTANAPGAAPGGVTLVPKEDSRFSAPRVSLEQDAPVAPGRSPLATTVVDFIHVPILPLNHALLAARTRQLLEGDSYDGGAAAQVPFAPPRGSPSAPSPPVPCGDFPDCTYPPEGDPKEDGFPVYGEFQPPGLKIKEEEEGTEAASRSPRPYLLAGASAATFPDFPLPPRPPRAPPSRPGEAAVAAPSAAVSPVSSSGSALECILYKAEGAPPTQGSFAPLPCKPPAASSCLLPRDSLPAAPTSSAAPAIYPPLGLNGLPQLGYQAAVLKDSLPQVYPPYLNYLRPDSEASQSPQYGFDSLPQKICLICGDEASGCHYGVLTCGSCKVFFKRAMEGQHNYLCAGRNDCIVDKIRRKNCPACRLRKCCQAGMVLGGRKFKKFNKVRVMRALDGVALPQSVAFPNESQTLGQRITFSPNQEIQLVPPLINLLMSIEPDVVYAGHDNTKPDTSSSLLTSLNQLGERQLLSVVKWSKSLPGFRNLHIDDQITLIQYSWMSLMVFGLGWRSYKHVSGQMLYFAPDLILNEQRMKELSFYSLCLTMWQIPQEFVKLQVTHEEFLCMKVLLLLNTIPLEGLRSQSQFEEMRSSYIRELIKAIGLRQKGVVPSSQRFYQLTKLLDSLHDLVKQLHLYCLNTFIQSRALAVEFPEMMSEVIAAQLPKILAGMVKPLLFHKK

[7] = Antagonist activity for glucocorticoid receptor; type: functional
Androgen receptor = molecular target: T4, Androgen receptor (Homo sapiens, UniProt P10275); assay: Antagonist activity for androgen receptor; type: functional
T4 sequence (P10275 whole entry): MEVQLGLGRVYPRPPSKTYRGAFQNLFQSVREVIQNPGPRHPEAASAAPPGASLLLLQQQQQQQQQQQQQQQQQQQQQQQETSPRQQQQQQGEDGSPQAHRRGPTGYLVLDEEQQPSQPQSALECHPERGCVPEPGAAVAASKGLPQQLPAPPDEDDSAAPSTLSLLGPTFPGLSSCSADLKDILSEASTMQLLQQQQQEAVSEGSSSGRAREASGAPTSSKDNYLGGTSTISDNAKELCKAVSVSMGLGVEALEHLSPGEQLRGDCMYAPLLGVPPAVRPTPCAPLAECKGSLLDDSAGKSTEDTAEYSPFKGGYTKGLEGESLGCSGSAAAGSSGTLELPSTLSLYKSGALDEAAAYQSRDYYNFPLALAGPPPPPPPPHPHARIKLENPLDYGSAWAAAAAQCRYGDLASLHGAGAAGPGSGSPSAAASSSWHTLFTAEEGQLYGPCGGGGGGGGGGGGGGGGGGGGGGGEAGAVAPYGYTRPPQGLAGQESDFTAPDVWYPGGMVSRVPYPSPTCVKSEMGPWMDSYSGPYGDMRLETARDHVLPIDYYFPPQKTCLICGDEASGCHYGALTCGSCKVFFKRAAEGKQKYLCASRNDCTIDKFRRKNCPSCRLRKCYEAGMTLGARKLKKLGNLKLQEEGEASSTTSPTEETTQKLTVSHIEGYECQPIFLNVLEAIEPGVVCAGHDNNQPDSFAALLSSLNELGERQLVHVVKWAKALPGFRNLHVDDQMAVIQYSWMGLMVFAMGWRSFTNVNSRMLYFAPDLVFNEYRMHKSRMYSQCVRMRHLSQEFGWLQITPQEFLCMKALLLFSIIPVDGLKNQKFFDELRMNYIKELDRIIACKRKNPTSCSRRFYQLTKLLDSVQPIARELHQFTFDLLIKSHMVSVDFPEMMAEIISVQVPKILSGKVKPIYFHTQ

[8] = molecular target: T5, Androgen receptor (Homo sapiens) (UniProt P10275); assay: Agonistic activity for androgen receptor up to 10 uM; Not active; type: functional
T5 sequence (whole entry): T4 sequence (P10275 whole entry)

[9] = Agonistic activity for glucocorticoid receptor up to 10 uM; Not active; type: functional
[10] = molecular target: T3, Progesterone receptor (Rattus norvegicus); assay: Percentage inhibition of progesterone-induced stimulation when administered orally at 3 mg/kg in rat decidualization assay; type: functional, organism-based; design: dose 3 mg/kg

Structure (SMILES)	IC50 (Progesterone receptor [1]) [µM]	IC50 [2] [nM]	EC50 (Progesterone receptor [3]) [nM]	also measured
CC1(C)OC(=O)Nc2ccc(-c3cccc(C#N)c3)cc21	0.008	18	~1000	
CC#C[C@]1(O)CC[C@H]2[C@@H]3CCC4=CC(=O)CCC4=C3[C@@H](c3ccc(N(C)C)cc3)C[C@@]21C [MIFEPRISTONE]		0.7		
CC1(C)OC(=O)Nc2ccc(-c3ccc(C#N)s3)cc21	0.023		~1000	
CC1(C)OC(=O)Nc2ccc(-c3ccc(C#N)o3)cc21	0.065		~3000	
CCn1c(C#N)ccc1-c1ccc2c(c1)C(C)(C)OC(=O)N2	~3	9.4		Efficacy [4]: 80%; EC50 (Progesterone receptor [5]): 1.8 nM; inhibition [6]: 30%
N#Cc1ccc(-c2ccc3c(c2)C2(CCCCC2)C(=O)N3)[nH]1	> 3		60	
CC1(C)OC(=O)Nc2ccc(-c3c[nH]c(C#N)c3)cc21	~2		> 1000	
CC1(C)OC(=O)Nc2ccc(-c3ccc(C(=O)C(F)(F)F)[nH]3)cc21	> 3		~1000	
CC(=O)[C@H]1CC[C@H]2[C@@H]3CCC4=CC(=O)CC[C@]4(C)[C@H]3CC[C@]12C [PROGESTERONE]		3.4		
CC1(C)OC(=O)Nc2ccc(-c3ccc(C=O)[nH]3)cc21	> 3		~1000	
Cn1ccc(C#N)c1-c1ccc2c(c1)C(C)(C)OC(=O)N2	~3		> 1000	
CC1(C)OC(=O)Nc2ccc(-c3cnc(C#N)o3)cc21	~3		> 1000	
N#Cc1cccc(-c2ccc3c(c2)C2(CCCCC2)C(=O)N3)c1				IC50 [7]: > 1000 nM; IC50 (Androgen receptor): > 1000 nM; Activity [8]: inactive; Activity [9]: inactive
CC1(C)OC(=O)Nc2ccc(-c3ccc([N+](=O)[O-])[nH]3)cc21	0.18		~1000	
Cn1c(-c2ccc3c(c2)C(C)(C)OC(=O)N3)cnc1C#N	> 3		130	
O=C1Nc2ccc(-c3ccc([N+](=O)[O-])[nH]3)cc2C12CCCCC2	0.036		> 1000	inhibition [10]: 50%
Cn1c(C#N)ccc1-c1ccc2c(c1)C1(CCCCC1)C(=O)N2	> 3	3.4	2.8	
CC1(C)OC(=O)Nc2ccc(-c3ccc(C#N)[nH]3)cc21	> 3	29	2.1	
Cn1c(C#N)ccc1-c1ccc2c(c1)C(C)(C)OC(=O)N2	> 3	4.9		Efficacy [4]: 80%; EC50 (Progesterone receptor [5]): 1.1 nM; inhibition [6]: 50%
CC1(C)OC(=O)Nc2ccc(-c3ccc[nH]3)cc21	~3		> 3000	
CC1(C)OC(=O)Nc2ccc(-c3[nH]ccc3C#N)cc21	> 3		> 1000	
Cn1cc(-c2ccc3c(c2)C(C)(C)OC(=O)N3)cc1C#N	0.041	88	> 1000	
